Here are results for 88 compounds from PubChem BioAssay AID492959 (The Scripps Research Institute Molecular Screening Center, 2010).

Each structure is given as a SMILES string. Activity calls are given as the source filed them.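 The calls were made as follows: active = IC50 of 10 µM or lower; inactive = IC50 above 10 µM.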 Where only a bound is given, the exact number is not on record here.

One assay relates to E. coli AddAB+ with T4 gene 2 phage, OD growth. Description: AddAB complex inhibitors, phage-infection growth assay, dose response, absorbance, E. coli, T4 phage (AID 492959).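 Also: growth read as OD600 after 18 h at 37 °C; AddAB inhibitors let the phage kill the cells so OD falls.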
Conditions: not given
One may read the IC50 as the concentration that gives 50% inhibition. For `Cc1ccc(C[n+]2c(-c3ccc(C)cc3)cc(-c3ccc(C)cc3)cc2-c2ccc(C)cc2)cc1`, the IC50 is 18.4 µM (inactive).

The same assay, now with this note: AddAB enzyme is from H. pylori; T4 phage with nonsense-mutated gene 2.
In the case of `CC(C)C(=O)NC(c1cccc([N+](=O)[O-])c1)c1ccc2cccnc2c1O` (stereo not drawn), the IC50 was > 119 µM (inactive).

For the compound `CCC(=O)NC(c1cccs1)c1cc(Cl)c2cccnc2c1O` (stereo not drawn), the IC50 is > 119 µM (inactive).

As for `COc1ccc(-c2cc(N3CCCC3)n3ncnc3n2)cc1`, the IC50 was > 119 µM (inactive).

On to `CCCC(=O)NC(c1ccc(OC)cc1)c1ccc2cccnc2c1O` (stereo not drawn), for which the IC50 is > 119 µM (inactive).

In the case of `CCOC(=O)c1cn(CC)c2cc(N3CCOCC3)c(F)cc2c1=O`, the IC50 was 36.6 µM (inactive).

Turning to `CCN1/C(=C/C=C/c2sc3ccccc3[n+]2CC)Sc2ccccc21`, the IC50 is 78.2 µM (inactive).

Take `O=C(N/N=C/c1ccc(O)cc1O)c1ccc(CN2C(=O)c3cccc4cccc2c34)cc1`: the IC50 was > 119 µM (inactive).

Turning to `CN1CCN(C(c2ccc(C(F)(F)F)cc2)c2cc(Cl)c3cccnc3c2O)CC1` (stereo not drawn), the IC50 is > 119 µM (inactive).

Regarding `CCn1nnc(NC(=O)c2ccc([N+](=O)[O-])o2)n1`, the IC50 is 21.1 µM (inactive).

On to `c1cnc2c(c1)ccc1cccnc12`, for which the IC50 is 29.6 µM (inactive).

As to `O=Nc1c2nc3ccccc3n(O)c-2c2ccccc12`, the IC50 was > 119 µM (inactive).

Take `CC(=O)NC(c1ccc(C(C)C)cc1)c1ccc2cccnc2c1O` (stereo not drawn): the IC50 is > 118 µM (inactive).

For `O=C(Nc1nnc(-c2ccccc2)o1)c1ccc(Cl)cc1`, the IC50 is 66.5 µM (inactive).

For `CCCC(=O)NC(c1ccccc1OC)c1ccc2cccnc2c1O` (stereo not drawn), the IC50 was > 119 µM (inactive).

With `O=C(c1ccc([N+](=O)[O-])o1)N1CCOCC1`, the IC50 was 15.3 µM (inactive).

Turning to `Cc1cc(N/N=C/c2ccc([N+](=O)[O-])o2)nc2ccccc12`, the IC50 is 37.6 µM (inactive).

For `Fc1ccc(Nc2nnc(C(F)(F)F)s2)cc1Cl`, the IC50 was 78 µM (inactive).

Take `O=[N+]([O-])c1cc(O)c2ncccc2c1`: the IC50 is 46.5 µM (inactive).

As for `CCCNC(=O)c1ccc2c(=O)c(O)c(-c3ccc(C)cc3)[nH]c2c1`, the IC50 was > 119 µM (inactive).

With `O=Nc1ccc(O)c2ncccc12`, the IC50 was 9.8 µM.

`Cc1cc(C(=O)N/N=C/c2ccc([N+](=O)[O-])o2)c(C)o1`: the IC50 is 30.4 µM (inactive).

For the compound `O=C(O)c1cccc(NC(=S)N/N=C/c2ccccn2)c1`, the IC50 is > 119 µM (inactive).

On to `O=C(CSc1ncnc2nc[nH]c12)c1ccc(Cl)cc1`, for which the IC50 is 63.5 µM (inactive).

Take `COc1ccc(-c2nnc(NC(=O)c3ccc(F)cc3)o2)cc1`: the IC50 was > 118 µM (inactive).

In the case of `COc1ccc(OCC(O)CNc2ccc(Br)cc2)cc1` (stereo not drawn), the IC50 was > 119 µM (inactive).

For `N/C(=N/OC(=O)c1ccc(Cl)cc1)c1ncc([N+](=O)[O-])s1`, the IC50 was 111 µM (inactive).

`COc1c(O)c(O)c2oc(-c3ccccc3)cc(=O)c2c1OC`: the IC50 was > 119 µM (inactive).

With `Cc1c(C(=O)NNC(=O)c2ccccc2O)oc2ccc(Br)cc12`, the IC50 was > 119 µM (inactive).

On to `O=c1c2ccccc2nc(N/N=C/c2c(O)ccc3ccccc23)n1O`, for which the IC50 was > 119 µM (inactive).

Consider `CCCC(=O)NC(c1ccc(C(C)C)cc1)c1ccc2cccnc2c1O` (stereo not drawn), for which the IC50 was > 119 µM (inactive).

`COc1cccc(-n2c(SCc3cc(=O)oc4cc(O)c(O)cc34)nc3ccccc3c2=O)c1`: the IC50 is > 119 µM (inactive).

Take `CCCCCC(CC(=O)NO)C(=O)NC(C(=O)N1CCCC1CO)C(C)C` (stereo not drawn): the IC50 was 77.8 µM (inactive).

Regarding `Cc1ccc(NC(=O)Cn2cnc3ccccc32)cc1C`, the IC50 was > 119 µM (inactive).

`CC(=O)Nc1ccc2nc(NC(=O)c3ccc([N+](=O)[O-])o3)sc2c1`: the IC50 is > 13.2 µM (inactive).

As for `CCNc1c([N+](=O)[O-])c(=O)oc2ccccc12`, the IC50 is 51.6 µM (inactive).

With `N/C(=N/OC(=O)c1ccccc1Cl)c1ncc([N+](=O)[O-])s1`, the IC50 is 93.1 µM (inactive).

As to `O=C(N/N=C\c1cccc(Cl)c1)c1ccc(Cn2cc(Br)c([N+](=O)[O-])n2)o1`, the IC50 is > 119 µM (inactive).

For `Cc1onc(-c2c(Cl)cccc2Cl)c1C(=O)N/N=C(\N)COc1ccc(Cl)cc1`, the IC50 is > 119 µM (inactive).

As to `CCCCCOc1ccc(CSC(=N)N)cc1[N+](=O)[O-]`, the IC50 was > 39.5 µM (inactive).

For the compound `O=C(Cc1ccc([N+](=O)[O-])cc1)N/N=C/c1ccc([N+](=O)[O-])o1`, the half-maximal inhibitory concentration (IC50) was 9.36 µM.

Take `O=C(CCC1CCCC1)NNC(=O)c1cc2ccccc2cc1O`: the IC50 is > 119 µM (inactive).

For the compound `O=C(/C=C/c1cccs1)NC(=S)NNC(=O)c1ccccc1O`, the IC50 was > 119 µM (inactive).

Consider `COc1ccc(NC(=O)CSc2nnc(-c3ccc(F)cc3)o2)cn1`, for which the IC50 was > 119 µM (inactive).

For `O=C(CSc1nc2ccccc2s1)Nc1ccc(N2CCOCC2)c(Cl)c1`, the IC50 was > 119 µM (inactive).

For `O=C(Nc1cccc(NC(=O)c2ccccc2Cl)c1)c1ccc([N+](=O)[O-])o1`, the IC50 was 16.8 µM (inactive).

Regarding `O=C(Nc1ccc2oc(-c3ccncc3)nc2c1)c1ccc([N+](=O)[O-])o1`, the IC50 was > 119 µM (inactive).

`O=C(/C=C1\NC2(CCCC2)Cc2ccccc21)C(=O)N/N=C/c1ccccc1O`: the IC50 is > 119 µM (inactive).

As to `O=C(NNC(=O)c1cc(-c2ccncc2)nc2ccccc12)c1ccccc1O`, the IC50 is > 119 µM (inactive).

`Cc1cc2c(c(=O)o1)C(c1ccc([N+](=O)[O-])o1)C(C#N)=C(N)O2` (stereo not drawn): the IC50 is 29.6 µM (inactive).

For `O=C(CSc1nc2ccccc2[nH]1)Nc1ccc(N2CCOCC2)cc1`, the IC50 is > 118 µM (inactive).

For `Oc1ccc(N=Nc2c(O)ccc3ccccc23)cc1`, the IC50 was > 118 µM (inactive).

Turning to `CCN1/C(=C\c2ccc3ccccc3[n+]2CC)Sc2cc(C)ccc21`, the IC50 was 47.3 µM (inactive).

In the case of `O=C1c2ccccc2NC(c2ccc(-c3ccc(C(F)(F)F)cc3)o2)N1O` (stereo not drawn), the IC50 is > 119 µM (inactive).

For `O=c1oc2ccccc2c(NC(c2ccccc2)c2ccccc2)c1[N+](=O)[O-]`, the IC50 was 35.1 µM (inactive).

In the case of `CC(C)C(=O)NC(c1ccc(Cl)cc1Cl)c1ccc2cccnc2c1O` (stereo not drawn), the IC50 was > 119 µM (inactive).

As for `Oc1c(C(c2ccccc2Cl)N2CCCC2)ccc2cccnc12` (stereo not drawn), the IC50 is 115 µM (inactive).

Turning to `CCOC(=O)c1ccc(-c2ccc(C3Nc4ccccc4C(=O)N3O)o2)cc1` (stereo not drawn), the IC50 was > 119 µM (inactive).

Regarding `C(=N\Nc1nc2ccccc2s1)/c1ccccn1`, the IC50 was > 119 µM (inactive).

`O=C(CSC1=NNC(c2ccccn2)S1)Nc1ccccc1` (stereo not drawn): the IC50 was > 118 µM (inactive).

For the compound `Cc1ccc(-c2oc3ccccc3c(=O)c2O)cc1`, the IC50 was > 119 µM (inactive).

`Oc1cccc(C(Nc2nccs2)c2ccc3cccnc3c2O)c1` (stereo not drawn): the IC50 is > 119 µM (inactive).

Turning to `COc1cc(-c2nnc(SCc3cc(=O)oc4cc(O)c(O)cc34)o2)cc(OC)c1OC`, the IC50 was > 119 µM (inactive).

With `O=C1c2ccccc2NC(c2ccc(-c3ccc(Br)cc3)o2)N1O` (stereo not drawn), the IC50 was > 119 µM (inactive).

On to `Oc1ccc2ccccc2c1N=Nc1ccccn1`, for which the IC50 was > 118 µM (inactive).

In the case of `CCCCC(=O)NC(c1ccc(N(C)C)cc1)c1ccc2cccnc2c1O` (stereo not drawn), the IC50 is > 119 µM (inactive).

On to `CCCC(=O)NC(c1cccs1)c1cc(Cl)c2cccnc2c1O` (stereo not drawn), for which the IC50 was > 119 µM (inactive).

In the case of `Oc1c(C(Nc2nc3ccccc3s2)c2ccco2)ccc2cccnc12` (stereo not drawn), the IC50 was > 119 µM (inactive).

For the compound `O=C(NC(=S)NNC(=O)c1ccccc1O)c1cccs1`, the IC50 was > 39.6 µM (inactive).

Regarding `Cc1onc(-c2ccccc2)c1C(=O)NC(=S)NNC(=O)c1ccc(O)cc1O`, the IC50 is > 39.5 µM (inactive).

In the case of `O=C(O)c1cn(-c2ccc(N3CCCC3)c(F)c2)c2c(F)c(F)c(F)cc2c1=O`, the IC50 is 47.4 µM (inactive).

Take `COc1cccc(/C=N/NC(=O)c2[nH]c(C)c(C(=O)N/N=C/c3cccc(OC)c3O)c2C)c1O`: the IC50 is > 119 µM (inactive).

For the compound `CC(C)C(=O)N1CCN(c2ccc(NC(=O)c3ccc([N+](=O)[O-])o3)cc2)CC1`, the IC50 was 81.7 µM (inactive).

For the compound `Cc1cc([N+](=O)[O-])ccc1-c1ccc(C2Nc3ccccc3C(=O)N2O)o1` (stereo not drawn), the IC50 is > 119 µM (inactive).

Regarding `CCOc1ccc2oc(C(=O)NNC(=O)c3ccccc3O)c(C)c2c1`, the IC50 is > 119 µM (inactive).

Regarding `COc1ccccc1NC(=O)NNC(=O)c1cc2ccccc2cc1O`, the IC50 is > 119 µM (inactive).

As for `O=C(NCc1ccco1)c1ccc([N+](=O)[O-])o1`, the IC50 was 21.3 µM (inactive).

As for `Cc1cc(N/N=C/c2ccc(O)cc2O)nc(-c2ccccc2O)n1`, the IC50 was > 119 µM (inactive).

Consider `CCSc1nsc(NC(=O)Nc2cccc(F)c2)n1`, for which the IC50 is > 119 µM (inactive).

For `CCCCC(=O)NC(c1ccco1)c1cc(Cl)c2cccnc2c1O` (stereo not drawn), the IC50 was > 119 µM (inactive).

Regarding `Cc1c(Br)c([N+](=O)[O-])nn1C(C)C(=O)NCc1ccco1` (stereo not drawn), the IC50 is > 119 µM (inactive).

For `CC1(C)OC(=O)C(=NNc2ccc(O)cc2)C(=O)O1`, the IC50 was > 119 µM (inactive).

Turning to `O=C(N/N=C/c1ccc(O)cc1O)C(=O)N/N=C/c1ccc(O)cc1O`, the IC50 was > 119 µM (inactive).

`O=C(COC(=O)c1ccc([N+](=O)[O-])s1)c1ccc[nH]1`: the IC50 was > 119 µM (inactive).

Turning to `Cc1onc(-c2ccccc2)c1C(=O)NC(=S)NNC(=O)c1ccccc1O`, the IC50 is > 119 µM (inactive).

Consider `Cc1ccc(CNC(=O)c2ccc3c(=O)c(O)c(-c4ccc(C)cc4)[nH]c3c2)cc1`, for which the IC50 was > 119 µM (inactive).

As for `CCC(=O)NC(c1ccc(OC)cc1)c1cc(Cl)c2cccnc2c1O` (stereo not drawn), the IC50 was > 119 µM (inactive).

For `O=C(Cc1ccc2c(c1)OCO2)NN=Cc1ccc([N+](=O)[O-])o1`, the IC50 was 10.6 µM (inactive).
